Source: paper PMC4639919 (Neurochemical research, 2015)

Molecular target: α6β2* nicotinic acetylcholine receptor (α6 subunit) (Rattus norvegicus, UniProt P12390+P43143)
Sequence (P43143 31-493 limits assumed): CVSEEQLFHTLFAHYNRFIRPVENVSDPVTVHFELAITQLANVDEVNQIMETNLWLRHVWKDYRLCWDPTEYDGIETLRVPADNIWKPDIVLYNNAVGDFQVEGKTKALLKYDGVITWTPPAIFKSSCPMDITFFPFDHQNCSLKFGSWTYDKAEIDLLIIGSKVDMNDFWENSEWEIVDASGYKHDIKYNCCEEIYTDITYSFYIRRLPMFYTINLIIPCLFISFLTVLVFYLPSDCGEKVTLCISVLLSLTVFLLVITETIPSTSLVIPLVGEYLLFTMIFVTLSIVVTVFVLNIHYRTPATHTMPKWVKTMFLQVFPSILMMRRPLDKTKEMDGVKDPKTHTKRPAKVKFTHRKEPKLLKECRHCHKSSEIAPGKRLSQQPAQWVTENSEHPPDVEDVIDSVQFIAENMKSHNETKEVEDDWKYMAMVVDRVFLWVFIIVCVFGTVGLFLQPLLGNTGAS
Sequence (P12390 25-500 limits assumed): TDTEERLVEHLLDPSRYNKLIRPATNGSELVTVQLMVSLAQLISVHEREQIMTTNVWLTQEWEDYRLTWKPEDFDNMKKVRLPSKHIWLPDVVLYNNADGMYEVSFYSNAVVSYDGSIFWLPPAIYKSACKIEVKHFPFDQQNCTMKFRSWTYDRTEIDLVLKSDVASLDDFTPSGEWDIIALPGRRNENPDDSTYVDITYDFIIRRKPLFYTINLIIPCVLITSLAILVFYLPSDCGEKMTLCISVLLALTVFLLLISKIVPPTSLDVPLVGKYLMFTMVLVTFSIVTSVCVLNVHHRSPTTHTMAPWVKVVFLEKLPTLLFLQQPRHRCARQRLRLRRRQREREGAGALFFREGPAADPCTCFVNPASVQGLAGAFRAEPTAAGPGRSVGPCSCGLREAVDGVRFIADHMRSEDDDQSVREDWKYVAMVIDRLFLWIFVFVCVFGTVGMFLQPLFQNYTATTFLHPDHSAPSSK

SMILES: CC1=CCCN(CCCCCCCCCCN2CCC=C(C)C2)C1 [r-bPiDI, 1,10-bis(3-methyl-5,6-dihydropyridin-1(2H)-yl)decane]
- IC50: 37.5 ± 18.7 nM
